# Patent US12122761B2, “2-azaspiro[3.4]octane derivatives as M4 agonists” (NOVARTIS AG, priority 2019, dated 2024)
# pEC50: −log10 of the molar value.
# Target: T1, Cloned human M1 receptor (CHRM1) stably expressed in HEK293 cells (Homo sapiens, UniProt P11229)
# T1 construct: expressed in transfected cells; host or cells: HEK293
# T1 sequence (P11229 1-460): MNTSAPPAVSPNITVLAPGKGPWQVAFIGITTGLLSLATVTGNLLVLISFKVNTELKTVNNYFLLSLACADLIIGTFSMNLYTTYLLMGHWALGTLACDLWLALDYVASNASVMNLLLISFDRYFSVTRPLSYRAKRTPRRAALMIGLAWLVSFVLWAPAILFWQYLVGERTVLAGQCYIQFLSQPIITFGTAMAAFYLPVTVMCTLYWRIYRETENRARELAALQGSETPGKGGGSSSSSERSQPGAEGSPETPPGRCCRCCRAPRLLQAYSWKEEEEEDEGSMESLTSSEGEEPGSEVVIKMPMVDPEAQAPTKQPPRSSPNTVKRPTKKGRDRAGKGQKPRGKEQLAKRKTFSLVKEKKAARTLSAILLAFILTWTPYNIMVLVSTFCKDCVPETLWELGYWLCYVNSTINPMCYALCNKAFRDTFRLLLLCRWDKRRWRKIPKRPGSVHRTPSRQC
# Assay: CHRM1 Ca++ Flux Assay (agonist mode, FDSS 7000EX)
# Assay type: cell-based
# Settings: for Emax: HEK293, Percent Activity, read-out: M1 FDSS PA; for pEC50: geometric mean if tested more than once
# Outline: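 Compounds tested as agonists at 11 concentrations in triplicate, with calcium traces captured over 3 minutes. Cells were HEK293 with stable human CHRM1 expression, plated overnight at 25K/well and loaded with calcium dye. Responses normalized to carbachol EC100 and fitted by four-parameter nonlinear regression.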
Emax,pEC50,Compound
61%,6.75,"c1ccc(C2CCN([C@@H]3CCC4(C3)CN(c3nnco3)C4)CC2)c(C2CCOCC2)c1 [Example 2H, (R)-2-(6-(4-(2-(tetrahydro-2H-pyran-4-yl)phenyl)piperidin-1-yl)-2-azaspiro[3.4]octan-2-yl)-1,3,4-oxadiazole]"
60%,7.28,"Fc1cccc(C2CCN([C@@H]3CCC4(C3)CN(c3cncnc3)C4)CC2)c1OC1COC1 [Example 5W, (R)-6-(4-(3-fluoro-2-(oxetan-3-yloxy)phenyl)piperidin-1-yl)-2-(pyrimidin-5-yl)-2-azaspiro[3.4]octane]"
84%,7.70,"CC(C)(O)CCOc1ccccc1C1CCN([C@@H]2CCC3(C2)CN(c2nncs2)C3)CC1 [Example 3H, (R)-4-(2-(1-(2-(1,3,4-thiadiazol-2-yl)-2-azaspiro[3.4]octan-6-yl)piperidin-4-yl)phenoxy)-2-methylbutan-2-ol]"
69%,6.27,"c1ccc(C2CCN([C@@H]3CCC4(C3)CN(c3nnco3)C4)CC2)c(CC2CCOCC2)c1 [Example 2L, (R)-2-(6-(4-(2-((tetrahydro-2H-pyran-4-yl)methyl)phenyl)piperidin-1-yl)-2-azaspiro[3.4]octan-2-yl)-1,3,4-oxadiazole]"
21%,5.41,"c1ccc(C2CCN([C@H]3CCC4(C3)CN(c3nnco3)C4)CC2)c(C2CCOCC2)c1 (single isomer, unassigned) [Example 10T]"
55%,6.21,"c1ccc(C2CCN([C@@H]3CCC4(C3)CN(c3nncs3)C4)CC2)c(OCC2CCOCC2)c1 [Example 1I, (R)-2-(6-(4-(2-((tetrahydro-2H-pyran-4-yl)methoxy)phenyl)piperidin-1-yl)-2-azaspiro[3.4]octan-2-yl)-1,3,4-thiadiazole]"
36%,6.47,"Fc1ccc(N2CC3(CC[C@@H](N4CCC(c5ccccc5C5CCOCC5)CC4)C3)C2)cn1 [Example 5CC, (R)-2-(6-fluoropyridin-3-yl)-6-(4-(2-(tetrahydro-2H-pyran-4-yl)phenyl)piperidin-1-yl)-2-azaspiro[3.4]octane]"
42%,6.78,"c1ccc(C2CCN([C@@H]3CCC4(C3)CN(c3cncnc3)C4)CC2)c(OC2CCOCC2)c1 [Example 1L, (R)-2-(pyrimidin-5-yl)-6-(4-(2-((tetrahydro-2H-pyran-4-yl)oxy)phenyl)piperidin-1-yl)-2-azaspiro[3.4]octane]"
51%,6.37,"c1ccc(C2CCN([C@@H]3CCC4(C3)CN(c3nnco3)C4)CC2)c(OCC2CCOCC2)c1 [Example 2G, (R)-2-(6-(4-(2-((tetrahydro-2H-pyran-4-yl)methoxy)phenyl)piperidin-1-yl)-2-azaspiro[3.4]octan-2-yl)-1,3,4-oxadiazole]"
82%,6.85,"FC1(COc2ccccc2C2CCN([C@@H]3CCC4(C3)CN(c3nnco3)C4)CC2)CCOCC1 [Example 2D, (R)-2-(6-(4-(2-((4-fluorotetrahydro-2H-pyran-4-yl)methoxy)phenyl)piperidin-1-yl)-2-azaspiro[3.4]octan-2-yl)-1,3,4-oxadiazole]"
0%,< 4.60,"COCCOc1ccccc1C1CCN([C@@H]2CCC3(C2)CN(c2cnc(C)cn2)C3)CC1 [Example 5Y, (R)-6-(4-(2-(2-methoxyethoxy)phenyl)piperidin-1-yl)-2-(5-methylpyrazin-2-yl)-2-azaspiro[3.4]octane]"
107%,7.44,"c1ccc(C2CCN([C@@H]3CCC4(C3)CN(c3nnco3)C4)CC2)c(O[C@@H]2CCOC2)c1 [Example 2B, 2-((R)-6-(4-(2-(((R)-tetrahydrofuran-3-yl)oxy)phenyl)piperidin-1-yl)-2-azaspiro[3.4]octan-2-yl)-1,3,4-oxadiazole]"
83%,7.29,"c1ccc(C2CCN([C@@H]3CCC4(C3)CN(c3nncs3)C4)CC2)c(OC[C@H]2COCCO2)c1 [Example 3B, 2-((R)-6-(4-(2-(((R)-1,4-dioxan-2-yl)methoxy)phenyl)piperidin-1-yl)-2-azaspiro[3.4]octan-2-yl)-1,3,4-thiadiazole]"
11%,5.81,"c1ccc(C2CCN([C@@H]3CCC4(C3)CN(c3cncnc3)C4)CC2)c(OCC2CCOCC2)c1 [Example 1M, (R)-2-(pyrimidin-5-yl)-6-(4-(2-((tetrahydro-2H-pyran-4-yl)methoxy)phenyl)piperidin-1-yl)-2-azaspiro[3.4]octane]"
79%,7.23,COCCOc1ccccc1C1CCN([C@@H]2CCC3(C2)CN(c2nnco2)C3)CC1 [Example 2C]
87%,7.92,"O=C(C1COC1)N1CC2(CC[C@@H](N3CCC(c4ccccc4OCC(F)F)CC3)C2)C1 [Example 7JJ, (R)-(6-(4-(2-(2,2-difluoroethoxy)phenyl)piperidin-1-yl)-2-azaspiro[3.4]octan-2-yl)(oxetan-3-yl)methanone]"
58%,7.07,"COCCOc1ccccc1C1CCN([C@@H]2CCC3(C2)CN(c2ncns2)C3)CC1 [Example 3J, (R)-5-(6-(4-(2-(2-methoxyethoxy)phenyl)piperidin-1-yl)-2-azaspiro[3.4]octan-2-yl)-1,2,4-thiadiazole]"
88%,7.39,"c1ccc(C2CCN([C@@H]3CCC4(C3)CN(c3nncs3)C4)CC2)c(OC[C@@H]2COCCO2)c1 [Example 3C, 2-((R)-6-(4-(2-(((S)-1,4-dioxan-2-yl)methoxy)phenyl)piperidin-1-yl)-2-azaspiro[3.4]octan-2-yl)-1,3,4-thiadiazole]"
98%,7.14,"O=C(C1COC1)N1CC2(CC[C@@H](N3CCC(c4ccccc4OCCOC4COC4)CC3)C2)C1 [Example 7EE, (R)-oxetan-3-yl(6-(4-(2-(2-(oxetan-3-yloxy)ethoxy)phenyl)piperidin-1-yl)-2-azaspiro[3.4]octan-2-yl)methanone]"
2%,6.17,"CC(C)(O)COc1ccccc1C1CCN([C@@H]2CCC3(C2)CN(c2ncncn2)C3)CC1 [Example 5U, (R)-1-(2-(1-(2-(1,3,5-triazin-2-yl)-2-azaspiro[3.4]octan-6-yl)piperidin-4-yl)phenoxy)-2-methylpropan-2-ol]"
65%,7.43,"O=C(C1COC1)N1CC2(CC[C@@H](N3CCC(c4ccccc4OC4CCCC4)CC3)C2)C1 [Example 7G, (R)-(6-(4-(2-(cyclopentyloxy)phenyl)piperidin-1-yl)-2-azaspiro[3.4]octan-2-yl)(oxetan-3-yl)methanone]"
86%,6.94,"O=C(C1COC1)N1CC2(CC[C@@H](N3CCC(c4ccccc4OCCOC(F)(F)F)CC3)C2)C1 [Example 7DD, (R)-oxetan-3-yl(6-(4-(2-(2-(trifluoromethoxy)ethoxy)phenyl)piperidin-1-yl)-2-azaspiro[3.4]octan-2-yl)methanone]"
87%,7.27,"Fc1cccc(C2CCN([C@@H]3CCC4(C3)CN(c3nncs3)C4)CC2)c1OC1COC1 [Example 3E, (R)-2-(6-(4-(3-fluoro-2-(oxetan-3-yloxy)phenyl)piperidin-1-yl)-2-azaspiro[3.4]octan-2-yl)-1,3,4-thiadiazole]"
87%,7.96,"O=C(C1COC1)N1CC2(CC[C@@H](N3CCC(c4ccccc4Oc4nccs4)CC3)C2)C1 [Example 7C, (R)-oxetan-3-yl(6-(4-(2-(thiazol-2-yloxy)phenyl)piperidin-1-yl)-2-azaspiro[3.4]octan-2-yl)methanone]"
0%,5.19,"O=C(N1CC2(CC[C@H](N3CCC(c4ccccc4C4CCOCC4)CC3)C2)C1)C1(F)CC1 (single isomer, unassigned) [Example 9M]"
89%,6.99,"O=C(C1COC1)N1CC2(CC[C@@H](N3CCC(c4ccccc4OCC4(C(F)(F)F)CC4)CC3)C2)C1 [Example 7II, (R)-oxetan-3-yl(6-(4-(2-((1-(trifluoromethyl)cyclopropyl)methoxy)phenyl)piperidin-1-yl)-2-azaspiro[3.4]octan-2-yl)methanone]"
67%,7.21,"CC(C)(O)CCOc1ccccc1C1CCN([C@@H]2CCC3(C2)CN(c2ncns2)C3)CC1 [Example 3L, (R)-4-(2-(1-(2-(1,2,4-thiadiazol-5-yl)-2-azaspiro[3.4]octan-6-yl)piperidin-4-yl)phenoxy)-2-methylbutan-2-ol]"
75%,8.05,"O=C(C1COC1)N1CC2(CC[C@@H](N3CCC(c4ccccc4OC4CC4)CC3)C2)C1 [Example 7A, (R)-(6-(4-(2-cyclopropoxyphenyl)piperidin-1-yl)-2-azaspiro[3.4]octan-2-yl)(oxetan-3-yl)methanone]"
0%,< 4.60,"c1ccc(C2CCN([C@@H]3CCC4(C3)CN(c3cncnc3)C4)CC2)c(OC2CC3(COC3)C2)c1 [Example 1O, (R)-6-(4-(2-((2-oxaspiro[3.3]heptan-6-yl)oxy)phenyl)piperidin-1-yl)-2-(pyrimidin-5-yl)-2-azaspiro[3.4]octane]"

Compound,Emax,pEC50
"CC(C)(O)CCOc1ccccc1C1CCN([C@@H]2CCC3(C2)CN(C(=O)C2COC2)C3)CC1 [Example 7CC, (R)-(6-(4-(2-(3-hydroxy-3-methylbutoxy)phenyl)piperidin-1-yl)-2-azaspiro[3.4]octan-2-yl)(oxetan-3-yl)methanone]",94%,8.22
